Results published in patent US11331290B2, “Niclosamide for the treatment of cancer metastasis” (Max-Delbrück-Centrum für Molekulare Medizin in der …, priority 2011, dated 2022).

Columns and labels:
S100A4 mRNA = S100A4 mRNA in spleen tumor of xenograft mice (qRT-PCR); format: in vivo; conditions: for S100A4 mRNA level in spleen tumor, mean % of control mice / S100A4 mRNA level in spleen tumor, mean difference control vs niclosamide: day 24
Procedure: All experiments were performed in accordance with the UKCCCR guidelines and approved by the responsible local authorities (State Office of Health and Social Affairs, Berlin, Germany). HCT116-CMVp-LUC cells (3×10^6 cells per mouse, resuspended in 50 μL PBS) were intrasplenically transplanted into 6-week-old female nonobese diabetic-severe combined immunodeficiency (NOD-SCID) mice. Mice were randomly assigned to 3 groups and reatment of mice started 24 hours after cell transplantation. Mice of the control group (n=9) were treated with daily doses of solvent. Mice of the second group (n=9) were daily treated intraperitoneally with 20 mg per kg niclosamide. Mice of the third group (n=9) were treated intraperitoneally with two doses of 15 mg per kg niclosamide per day. The experimental endpoint was reached when mice appeared moribund and/or the spleen tumor was palpable. This was the case with the majority of control mice on day 24. For long-term in vivo experiments mice randomly assigned to 3 groups. Mice of the control group (n=6) were treated intraperitoneally with daily doses of solvent. Mice of the second group (n=6) were daily treated intraperitoneally with 20 mg per kg niclosamide. Mice of the third group (n=6) were daily treated intraperitoneally for 24 days with 20 mg per kg niclosamide and for the residual days with solvent. Mice were killed by cervical dislocation when tumor reached the maximum in accordance with the local authorities.
Spleen (as the transplantation site) and liver (as a metastasis target organ) were removed. The amount of S100A4 mRNA in the tumor was determined by Trizol RNA isolation of tumor cryosections and quantitative real-time RT-PCR. The level of metastasis was evaluated by scoring. For each liver, a score was calculated as the sum of the volumes of the individual metastases. For each metastasis the formula [width2]×length was applied.
(A) In vivo luminescence imaging of metastasis under niclosamide treatment. HCT116-CMVp-LUC cells stably expressing firefly luciferase (LUC) were intrasplenically transplanted into mice (per group n=4) followed by daily intraperitoneal treatment with 20 mg per kg niclosamide. For luminescence imaging, mice were anesthetized at the indicated days and received intraperitoneally D-luciferin. Exposure time for lateral and ventral imaging was 20 seconds per picture. In situ imaging and imaging of isolated organs was performed for 1 second per picture exposure time. Signal intensity of grayscale images (256 scale) were color coded (from low to high signal intensity: blue, green, yellow, red, white) and overlayed with bright field picture. (B) S100A4 mRNA level in spleen tumor of niclosamide-treated xenograft mice. Spleens from mice (per group n=9) were dissected on day 24. Tumor tissue was cryosected for RNA isolation. S100A4 mRNA level was measured by qRT-PCR and expressed as percentage of control mice. Differences were analyzed by two-sided one-way analysis of variance and Bonferroni post hoc multiple comparison test. Bars represent mean±SD. (C) Liver metastases size in niclosamide-treated xenograft mice. Liver was dissected from xenograft mice (per group n=9) intraperitoneally treated twice per day with 15 mg per kg or daily with 20 mg per kg niclosamide for 24 days. Metastasis was quantified by scoring. Data is given as mean±SD.
(A) S100A4 expression in vitro after discontinued niclosamide treatment. HCT116 cells were treated daily with 1 μM niclosamide for three consecutive days, medium was removed on day 4, and S100A4 expression was analyzed 24, 48, and 72 hours after niclosamide removal. S100A4 expression was analyzed by qRT-PCR and immunoblot. (B) Cell migration after discontinued niclosamide treatment. Cell migration rates of HCT116 cells treated as in (A) were determined by Boyden chamber assay. Differences in control vs. treated cells were analyzed by Student's t test. (C) Anchorage-dependent cell proliferation after discontinued niclosamide treatment. […]

SW480 cells = assay: Soft agar colony formation assay; format: cell-based, human; conditions: 1 μM, 7 days
Procedure: (§1) Analysis of anchorage-independent cell proliferation was achieved by soft agar colony formation assay. A bottom layer containing 0.5% w/v agarose, RPMI-1640 medium, 10% FBS and 1 μM niclosamide or the respective amount of DMSO was added to a 6 cm Ø dish and incubated at room temperature under sterile conditions for 10 minutes. Onto the solidified bottom layer a top layer was added containing 8×10^3 cells, 0.33% w/v agarose, RPMI-1640 medium, 10% FBS and 1 μM niclosamide or the respective amount of DMSO. Cells were seeded as single cells into the soft agar and incubated in a humidified incubator at 37° C. and 5% CO2 for 7 days. Colony formation was visualized by 10× magnification for an overview and 40× magnification for single colonies in the Leica DM IL light microscope (Leica Microsystems). Colony quantification was achieved by counting cell colonies of more than 4 cells in 10 squares of […]. Colony formation experiments were repeated twice, each in triplicates.
(§2) (A) S100A4 expression under niclosamide treatment. Cells were treated with 1 μM niclosamide for 24 hours. S100A4 expression was analyzed with qRT-PCR and immunoblot. (B) Cell migration under niclosamide treatment. Migration rates of cells treated with 1 μM niclosamide for 24 hours were determined in a Boyden chamber assay values were normalized to solvent-treated SW620 cells. (C) Cell invasion under niclosamide treatment. Cells were seeded onto Matrigel covered transwells and treated with 1 μM niclosamide for 24 hours. Invaded cells in the lower chamber were counted and normalized to solvent-treated SW620 cells. Differences in solvent vs. niclosamide-treated cells were analyzed by Student's t test. Data represent mean±SE of at least two independent experiments each performed in triplicate. (D) Directed migration under niclosamide treatment. Wounds of 300 μM width were set in a 60% confluent monolayer of cells on day 1. Cells were treated daily with 1 μM niclosamide for 4 days. Microphotographs of day 4 are presented here with black lines indicating margins of the wound on day 1; scale bar represents 200 μM. Directed migration data shown are representatives of three independent experiments. (E) Adhesive cell proliferation under niclosamide treatment. Cells were treated daily with 1 μM niclosamide. The amount of viable cells per well was determined by MTT assay. (F) Anchorage-independent cell growth under niclosamide treatment. Cells were plated as single cells into 0.33% (w/v) agarose and treatment (solvent or 1 μM niclosamide) containing medium. After 7 days colonies were visualized by light microscopy at 10× (overview) and 40× (single colony) magnification. (G) Quantification of colonies formed. Number of colonies (of more than 4 cells) was counted and normalized to solvent-treated SW620 cells. Differences in solvent vs. niclosamide-treated cells were analyzed by Student's t test. Data represent mean mean±SE of at least two independent experiments each performed in duplicates.

DLD-1 cells = assay: Soft agar colony formation assay; format: cell-based, human; conditions: 1 μM, 7 days
Procedure: as §1, §2

SW620 cells = assay: Soft agar colony formation assay; format: cell-based, human; conditions: 1 μM, 7 days
Procedure: as §1, §2

LS174T cells = assay: Soft agar colony formation assay; format: cell-based, human; conditions: 1 μM, 7 days
Procedure: as §1, §2

[1] = 20 mg per kg daily intraperitoneally
[2] = 2×15 mg per kg per day intraperitoneally

O=C(Nc1ccc([N+](=O)[O-])cc1Cl)c1cc(Cl)ccc1O [niclosamide, 2′,5-dichloro-4′-nitrosalicylanilide]
S100A4 mRNA level in spleen tumor, mean % of control mice (S100A4 mRNA; [1]): 67.2%
S100A4 mRNA level in spleen tumor, mean difference control vs niclosamide (S100A4 mRNA; [1]): 32.9%
S100A4 mRNA level in spleen tumor, mean % of control mice (S100A4 mRNA; [2]): 58.4%
S100A4 mRNA level in spleen tumor, mean difference control vs niclosamide (S100A4 mRNA; [2]): 41.7%
S100A4 mRNA level in spleen tumor, mean difference control vs treatment (S100A4 mRNA; continuous treatment): 27%
S100A4 mRNA level in spleen tumor, mean % of control animals (S100A4 mRNA; continuous treatment (20 mg per kg i.p. daily)): 73%
S100A4 mRNA level in spleen tumor, mean difference control vs treatment (S100A4 mRNA; discontinuous treatment): 40.0%
S100A4 mRNA level in spleen tumor, mean % of control animals (S100A4 mRNA; discontinuous treatment (20 mg per kg i.p. for 24 days, then solvent)): 60%
anchorage-independent growth, colony size (SW480 cells): clearly smaller cell colonies
number of colonies, mean difference control vs niclosamide (SW480 cells): 63.8%
number of colonies, mean % (normalized to solvent-treated SW620 cells) (SW480 cells; solvent control 68.1%): 4.3%
anchorage-independent growth, colony size (DLD-1 cells): clearly smaller cell colonies
number of colonies, mean difference control vs niclosamide (DLD-1 cells): 72.5%
number of colonies, mean % (normalized to solvent-treated SW620 cells) (DLD-1 cells; solvent control 82.6%): 10.1%
anchorage-independent growth, colony size (SW620 cells): clearly smaller cell colonies
number of colonies, mean difference control vs niclosamide (SW620 cells): 96.4%
number of colonies, mean % (normalized to solvent-treated SW620 cells) (SW620 cells; solvent control 100.0%): 3.6%
anchorage-independent growth, colony size (LS174T cells): clearly smaller cell colonies
number of colonies, mean difference control vs niclosamide (LS174T cells): 74.6%
number of colonies, mean % (normalized to solvent-treated SW620 cells) (LS174T cells; solvent control 90.6%): 15.9%
